Reference: patent US6569846B1, “Palladium-substituted bacteriochlorophyll derivatives and use thereof” (Yeda Research and Development Co. Ltd., priority 1998, dated 2003)
Several values for one entry are separate records, joined by “and”; a condition that tells them apart may be missing. Equal entries are not always repeated.

Experiments:
[1] = tested on: RIF (Radiation induced Fibrosarcoma) line; test: In vitro phototoxicity on RIF cells (MTT); format: cell-based, mouse
Method: (i) Cell lines. The murine leukemia cell line (L1210) was maintained in suspension culture using Fischer's medium supplemented with 10% horse serum, 1 mM glutamine, 1 mM mercaptoethanol and gentamicin. The RIF (Radiation induced Fibrosarcoma) tumor was maintained as specified by Twentyman et al. (1980, “A new mouse tumor model system (RIF-1) for comparison of end-point studies”, J. Natl. Cancer Inst., 64, 595-604). Cultures were grown in Weymouth's medium containing 10% fetal calf serum and gentamycin.
(ii) In vitro phototoxicity. For studies on phototoxicity involving L1210 and RIF cells, light was provided by a 600 watt quartz-halogen source filtered with 10 cm of water and a 850 nm cut-off filter to remove IR. The bandwidth was further confined to 660±5 nm by an interference filter (Oriel). Cells in suspension (L1210) or adhering to 24 mm diameter cover slips were incubated in growth medium (with 20 mM HEPES pH 7 replacing NaHCO3 for added buffering capacity) for 15 min in the presence of specified levels of sensitizers. […] For some studies, the cells were then labeled with fluorescent probes and sites of photodamage were assessed. […]
(iii) Cell Viability. Cell survival was assessed by the MTT reaction carried out 3 days after plating of 1,000-50,000 cells in 96 well plates. […] Absorbance at x nm was determined with a BioRad Plate reader. […]

[2] = tested on: mouse leukemia L1210 cells; test: Sites of photodamage (fluorescent probes); format: cell-based
Method: (ii) In vitro phototoxicity. For studies on phototoxicity involving L1210 and RIF cells, light was provided by a 600 watt quartz-halogen source filtered with 10 cm of water and a 850 nm cut-off filter to remove IR. The bandwidth was further confined to 660±5 nm by an interference filter (Oriel). Cells in suspension (L1210) or adhering to 24 mm diameter cover slips were incubated in growth medium (with 20 mM HEPES pH 7 replacing NaHCO3 for added buffering capacity) for 15 min in the presence of specified levels of sensitizers. The cells were then washed free from the sensitizer, and transferred to fresh media. Irradiations were carried out at 10° C. For some studies, the cells were then labeled with fluorescent probes and sites of photodamage were assessed. In other studies, the cells were then incubated for 60 min at 37° C. in fresh medium to allow apoptosis to proceed. Viability studies were carried out using 96-well plates and a 72-hour MTT assay, in quadruplicate.

C3H/BA mammary carcinoma = test: In vivo PDT of BA mammary carcinoma; parameters: key to Summary (cures), symbol: −: no response
Method: Photodynamic therapy parameters: Mice with tumors measuring 5-7 mm in diameter were entered into PDT experiments. Three Pd-BPheid drug doses (1, 5 and 10 mg/kg) and two light doses (100 and 300 Joules/sq.cm) were evaluated. A formulation of Pd-BPheid dissolved in Cremophor was administered by i.v. tail injection. PDT light exposure was started either 15 minutes, 1 hour or 4 hours following injection. […] A titanium sapphire laser tuned to 757 nm was used as the light source for PDT. Laser generated light was coupled into quartz fibers for delivery of light to tumors. A light power density of 75 mW/sq.cm was used. Tumor size was measured 3 days per week following PDT treatments and the percentage of tumor cures (defined as no tumor recurrence for 40 days post treatment) was determined.
In vivo PDT Response: Tables 4 and 5 hereinafter provide summaries of the PDT treatment results for C3H mice transplanted with either the BA mammary carcinoma or the RIF-1 fibrosarcoma. Each table indicates the following parameters: 1) intravenous drug dose expressed in mg/kg; 2) laser treatment parameters, including the total light dose (J/cm^2), the wavelength (757 nm), the light dose rate (mW/cm^2), and the time interval ([…], 4) toxicity (four mice died shortly after treatment), 5) tumor regrowth (consisting of the number of days between PDT treatment and tumor recurrence) and 6) the number of mice (and percentage) with Pd-BPheid PDT induced tumor cures.

[3] = tested on: HT29 human colon adenocarcinoma; test: In vivo phototoxicity on grafted HT29 tumors (tumoral index); parameters: species or system Swiss nude mice; settings: for tumor growth as compared to controls / duration of decrease of tumor index: 15 mg/kg i.v., 763 nm
Method: Animal and tumor model: Solid tumor tissue (diameter 2 cm) removed from donor mouse immediately after death was mechanically crushed in 1 ml of 0.9% saline solution and the solution (0.1 ml) was injected s.c. into one hind leg of each mouse. Mice were included for experiments when the tumor diameter was 8-10 mm. Tumors were grafted s.c. in 8-week aged Swiss nude mice 10 days before experiment.
Phototoxic studies: 0.15 ml Pd-BPheid was injected i.v. at 15 mg/kg. Mice were anesthetized with thiopental at 40 mg/kg just before irradiation. At 30 min, 1 h, 4 h or 24 h after injection, mice were irradiated with a titanium sapphire laser at 300 mW/cm^2, mean diameter were measured to adjust time irradiation to obtain 200 or 300 J/cm^2. Control mice not injected with Pd-BPheid were also irradiated in same conditions. The tumor growth delay induced by PDT was analyzed by equivalence with tests realized in experimental radiotherapy. For in vivo studies and for each separate experiment, all results were the mean of 2 or 3 separate experiments and for each separate experiment, 2 mice were used for each experimental condition.
Concerning tumoral growth studies, results are expressed as tumoral index variations with reference (=1) corresponding to tumoral index from non-treated cells. The tumoral index was calculated as follows:
Tumoral index=(largest tumoral diameter+perpendicularly opposite diameter)/2.

M2R mouse melanoma cells = test: Phototoxicity on M2R cells (Example 10, [3H]-thymidine incorporation); format: cell-based; settings: pigments dissolved directly in culture medium containing 10% serum
Method: The diluted pigments were added and the cells were incubated in the dark for four hours at 37° C. Prior to illumination, the cells were washed once and replaced with fresh culture medium. The plates were then illuminated from the bottom for 10 minutes at room temperature and placed in the culture incubator at 37° C. in the dark. […] The following control systems were used: Dark control—untreated cells kept in the dark; Light control—cells not treated with sensitizer that were illuminated; Dark toxicity—cells treated with pigment but kept in the dark.

[4] = 1 mg/Kg i.v., 300 J/cm^2, 757 nm, 75 mW/cm^2, 15 min. interval
[5] = 5 mg/Kg i.v., 300 J/cm^2, 757 nm, 75 mW/cm^2, 1 HR interval
[6] = 5 mg/Kg i.v., 300 J/cm^2, 757 nm, 75 mW/cm^2, 15 min. interval
[7] = 10 mg/Kg i.v., 100 J/cm^2, 757 nm, 75 mW/cm^2, 1 HR interval
[8] = 10 mg/Kg i.v., 100 J/cm^2, 757 nm, 75 mW/cm^2, 15 min. interval
[9] = 10 mg/Kg i.v., 300 J/cm^2, 757 nm, 75 mW/cm^2, 1 HR interval
[10] = 10 mg/Kg i.v., 300 J/cm^2, 757 nm, 75 mW/cm^2, 4 HR interval

## CC[C@H]1C2=NC(=Cc3c(C(C)=O)c(C)c4[n]3[Pd][n]3c(c(C)c5c3=C(C3=NC(=C4)[C@@H](C)[C@@H]3CCC(=O)O)[C@@H](C(=O)OC)C5=O)=C2)[C@@H]1C [Pd-BPheid, Pd-bacteriopheophorbide a]
[1]
  light dose required for a similar degree (50%) of cell killing: 215 mJ/cm^2
[2]
  photodamage to the plasma membrane or to lysosomes: no detectable photodamage
  site of photodamage: highly specific mitochondrial photosensitizers
C3H/BA mammary carcinoma; [4]
  Number of Animals with Primary Tumor Regrowth (Days to Recurrence): 1(1 day)
  Summary (cures), symbol: −
  Toxicity (Treatment associated death): 0
C3H/BA mammary carcinoma; [5]
  Number of Animals with Primary Tumor Regrowth (Days to Recurrence): 1(11 days)
  Summary (cures) %: 66.66%
  Summary (cures), number of animals (days): 2(41 days)
  Toxicity (Treatment associated death): 0
C3H/BA mammary carcinoma; [6]
  Summary (cures) %: 100%
  Summary (cures), number of animals (days): 2(40 days)
  Toxicity (Treatment associated death): 0
C3H/BA mammary carcinoma; [7]
  Number of Animals with Primary Tumor Regrowth (Days to Recurrence): 1(5 days)
  Summary (cures) %: 66.66%
  Summary (cures), number of animals (days): 2(40 days)
  Toxicity (Treatment associated death): 0
C3H/BA mammary carcinoma; [8]
  Summary (cures) %: 100%
  Summary (cures), number of animals (days): 2(42 days)
  Toxicity (Treatment associated death): 0
C3H/BA mammary carcinoma; [9]
  Summary (cures) %: 100%
  Summary (cures), number of animals (days): 2(41 days) and 1(41 days)
  Toxicity (Treatment associated death): 0
C3H/BA mammary carcinoma; [10]
  Number of Animals with Primary Tumor Regrowth (Days to Recurrence): 2(1 day)
  Summary (cures), symbol: −
  Toxicity (Treatment associated death): 0
C3H/BA mammary carcinoma; 4-hour interval between drug administration and light treatment
  effectiveness of PDT: not effective
C3H/BA mammary carcinoma; comparable PDT treatments
  responsiveness of BA mammary carcinoma compared with RIF-1 fibrosarcoma: more responsive
C3H/BA mammary carcinoma; light treatments initiated within 1 hour of drug administration
  effectiveness of PDT: effective
[3]; 200 J/cm^2, 30 min and 4 h after injection
  tumor growth as compared to controls: tumor growth decrease
[3]; 200 J/cm^2, 1 h and 24 h after injection
  duration of decrease of tumor index: up to 7 days
[3]; 300 J/cm^2, 30 min and 24 h after injection
  tumor growth as compared to controls: tumor growth decrease
[3]; 300 J/cm^2, 1 h and 4 h after injection
  duration of decrease of tumor index: up to 7 days
[3]; 300 J/cm^2, 1 h after injection
  wavelength of maximum tumor growth decrease: 763 nm
[3]; 300 J/cm^2, 1 h after injection, 753 nm and 763 nm
  duration of tumor growth decrease as compared to controls: up to 12 days
[3]; 300 J/cm^2, 1 h after injection, 773 nm
  duration of tumor growth decrease as compared to controls: up to 5 days
[3]; 300 J/cm^2, 24 h after injection
  wavelength of maximum tumor growth decrease: 773 nm
[3]; 300 J/cm^2, 24 h after injection, 753 nm
  duration of tumor growth decrease as compared to controls: up to 4 days
[3]; 300 J/cm^2, 24 h after injection, 763 nm and 773 nm
  duration of tumor growth decrease as compared to controls: up to 12 days
[3]; 773 nm wavelength
  most efficient delay between injection and illumination: 24 h
[3]; at 764 nm
  most efficient delay between injection and illumination: one hour
[3]; summary of the study
  optimal wavelength of irradiation: 773 nm
M2R mouse melanoma cells
  phototoxic activity: fully active
